From patent US8765779B2, “Tricyclic derivatives and their pharmaceutical use and compositions” (Cephalon, Inc., priority 2009, dated 2014)
Where two headings read alike, the source gives them in different places.

Columns and labels:
human 5-HT6 receptor = molecular target: T1, human 5-HT6 receptor (Homo sapiens, UniProt P50406); assay: Human 5-HT6 Receptor Binding Assay ([3H]LSD displacement, scintillation beads); conditions: membranes of CHO-K1 cells with recombinant human 5-HT6, 4 nM [3H]LSD, read-out: h5-HT6 (Ki)
T1 construct: host or cells: CHO-K1 cells, stably transfected; membranes prepared in house
T1 sequence (P50406 whole entry): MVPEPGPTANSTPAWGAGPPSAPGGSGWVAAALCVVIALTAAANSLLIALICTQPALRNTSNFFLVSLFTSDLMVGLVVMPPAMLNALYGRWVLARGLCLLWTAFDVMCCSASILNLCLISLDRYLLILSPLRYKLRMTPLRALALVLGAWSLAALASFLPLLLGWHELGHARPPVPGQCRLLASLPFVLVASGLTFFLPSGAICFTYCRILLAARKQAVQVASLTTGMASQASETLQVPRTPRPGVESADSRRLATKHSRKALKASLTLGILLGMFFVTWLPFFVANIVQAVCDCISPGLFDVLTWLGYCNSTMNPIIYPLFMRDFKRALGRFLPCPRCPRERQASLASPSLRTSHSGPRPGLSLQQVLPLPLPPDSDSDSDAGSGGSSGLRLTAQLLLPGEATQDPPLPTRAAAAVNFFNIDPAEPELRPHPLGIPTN

Row | Compound | Ki (human 5-HT6 receptor; Table 1, class symbols) [nM] | melting point | Ki (human 5-HT6 receptor; specific data) [nM]
1 | CC12CCNCC1Oc1ccc(S(=O)(=O)c3cccc(Cl)c3Cl)cc12 (stereo not shown) [Example 101] | < 500 | 210 to 212 °C | –
2 | CC12CCNCC1Oc1ccc(S(=O)(=O)c3cccc(Cl)c3Cl)cc12 (stereo not shown) [Example 105] | < 500 | 242 to 244 °C | –
3 | CC12CCNCC1Oc1ccc(S(=O)(=O)c3cc(F)cc(F)c3)cc12 (stereo not shown) [Example 94] | < 500 | 196 to 198 °C | –
4 | O=S(=O)(c1ccc2c(c1)OC1CNCCC21)c1nc2ccccc2[nH]1 (stereo not shown) [Example 69] | < 500 | 188 to 189 °C | –
5 | Cn1ccc2c(S(=O)(=O)c3ccc4c(c3)OC3CNCCC43)cccc21 (stereo not shown) [Example 68] | < 500 | 164 to 165 °C | –
6 | Cc1c(Cl)cccc1S(=O)(=O)c1ccc2c(c1)OC1CNCCC21 (stereo not shown) [Example 66] | < 500 | 188 to 189 °C | –
7 | O=S(=O)(c1cccc(O)c1)c1ccc2c3c(oc2c1)CNCC3 [Example 627, 3-(1,2,3,4-Tetrahydro-benzo[4,5]furo[2,3-c]pyridine-7-sulfonyl)-phenol] | < 500 | 279 to 281 °C | –
8 | CC(=O)Nc1ccc(S(=O)(=O)c2ccc3c(c2)C2(C)CCNCC2O3)cc1 (stereo not shown) [Example 96] | > 1000 | 212 to 214 °C | –
9 | CC1(CN)NCCc2c1oc1cc(S(=O)(=O)c3cccc(F)c3)ccc21 (stereo not shown) [Example 493, 1-{7-[(3-Fluorophenyl)sulfonyl]-1-methyl-1,2,3,4-tetrahydro[1]benzofuro[2,3-c]pyridin-1-yl}methanamine] | < 500 | > 250 °C (dec.) | –
10 | O=S(=O)(c1cccc(OCc2ccccc2)c1)c1ccc2c(c1)OC1CNCCC21 (stereo not shown) [Example 74] | < 500 | 238 to 240 °C | –
11 | O=S(=O)(c1ccc2c(c1)OC1CNCCC21)c1cccc2nonc12 (stereo not shown) [Example 72] | > 1000 | 189 to 190 °C | –
12 | CC(C)Oc1cccc(S(=O)(=O)c2ccc3c4c(oc3c2)CNCC4(C)C)c1 [Example 87] | < 500 | 251 to 252 °C | –
13 | COc1ccc2sc(S(=O)(=O)c3ccc4c(c3)OC3CNCCC43)nc2c1 (stereo not shown) [Example 71] | > 1000 | 222 to 223 °C | –
14 | CC1(C(F)F)NCCc2c1oc1cc(S(=O)(=O)c3cccc(F)c3F)ccc21 (single isomer, unassigned; enantiomer 2) [Example 472, 1-(Difluoromethyl)-7-[(2,3-difluorophenyl)sulfonyl]-1-methyl-1,2,3,4-tetrahydro[1]benzofuro[2,3-c]pyridine, enantiomer 2] | < 500 | 249 to 252 °C | –
15 | CC12CCNCC1Oc1ccc(S(=O)(=O)c3ccccc3F)cc12 (stereo not shown) [Example 99, 6-[(2-fluorophenyl)sulfonyl]-4a-methyl-1,2,3,4,4a,9a-hexahydro[1]benzofuro[2,3-c]pyridine] | < 500 | 260 to 262 °C | 243
16 | COc1ccc(Cl)cc1S(=O)(=O)c1ccc2c3c(oc2c1)CNCC3 [Example 80] | < 500 | 258 to 259 °C | –
17 | COc1cc2c(cc1S(=O)(=O)c1cccc(Cl)c1Cl)C1CCNCC1O2 (stereo not shown) [Example 88] | < 500 | 216 to 217 °C | –
18 | O=S(=O)(c1cccc(-n2cnnn2)c1)c1ccc2c(c1)OC1CNCCC21 (stereo not shown) [Example 75] | > 1000 | > 300 °C | –
19 | O=S(=O)(c1ccc2c3c(oc2c1)CNCC3)c1cccc2nsnc12 [Example 83] | < 500 | 242 to 243 °C | –
20 | CC12CCNCC1Oc1ccc(S(=O)(=O)c3ccccc3CO)cc12 (stereo not shown) [Example 97] | > 1000 | 204 to 206 °C | –

Row | Compound | Ki (human 5-HT6 receptor; Table 1, class symbols) [nM] | melting point | Ki (human 5-HT6 receptor; specific data) [nM]
21 | O=S(=O)(c1ccc2c(c1)OC1CNCCC21)c1nc2ccccc2s1 (stereo not shown) [Example 65] | < 500 | 195 to 196 °C | –
22 | CC(=O)Nc1cccc(S(=O)(=O)c2ccc3c(c2)OC2CNCCC32)c1 (stereo not shown) [Example 73] | < 500 | 228 to 229 °C | –
23 | CC12CCNCC1Oc1ccc(S(=O)(=O)c3cccc(Cl)c3)cc12 (stereo not shown) [Example 100] | < 500 | 160 to 162 °C | –
24 | O=S(=O)(c1cccc(F)c1)c1ccc2c3c(oc2c1)C1(CCOCC1F)NCC3 (single isomer, unassigned) [Example 55, 3′-Fluoro-7-[(3-fluorophenyl)sulfonyl]-2′,3,3′,4,5′,6′-hexahydro-2H-spiro[1-benzofuro[2,3-c]pyridine-1,4′-pyran]] | < 500 | 251 to 260 °C | –
25 | O=S(=O)(c1ccc2c(c1)OC1CNCCC21)c1cccc2nsnc12 (stereo not shown) [Example 67] | < 500 | 195 to 196 °C | –
26 | CC12CCNCC1Oc1ccc(S(=O)(=O)c3cccc(F)c3)cc12 (stereo not shown) [Example 90] | < 500 | 168 to 171 °C | –
27 | CC12CCNCC1Oc1ccc(S(=O)(=O)c3ccc(F)cc3F)cc12 (stereo not shown) [Example 93] | 500 to 1000 | 215 to 216 °C | –
28 | O=S(=O)(c1ccc2c3c(oc2c1)CNCC3)c1cccc(Cl)c1F [Example 81] | < 500 | 245 to 246 °C | –
29 | CC(C)Oc1cccc(S(=O)(=O)c2ccc3c(c2)C2(C)CCNCC2O3)c1 (stereo not shown) [Example 98] | < 500 | 162 to 164 °C | –
30 | COc1cc(OCc2ccccc2)cc(S(=O)(=O)c2ccc3c(c2)OC2CNCCC32)c1 (stereo not shown) [Example 76] | < 500 | 202 to 203 °C | –
31 | COc1ccc(S(=O)(=O)c2ccc3c(c2)C2(C)CCNCC2O3)cc1F (stereo not shown) [Example 95] | < 500 | 185 to 187 °C | –
32 | COc1cc(OC(C)C)cc(S(=O)(=O)c2ccc3c4c(oc3c2)CNCC4(C)C)c1 [Example 85] | < 500 | 246 to 247 °C | –
33 | CC12CCNCC1Oc1ccc(S(=O)(=O)c3cccc(Cl)c3)cc12 (stereo not shown) [Example 104] | > 1000 | 216 to 218 °C | –
34 | O=S(=O)(c1cc(F)cc(F)c1)c1ccc2c3c(oc2c1)C1(CCCOC1)NCC3 (racemic) [Example 24, 7-[(3,5-difluorophenyl)sulfonyl]-3,4,5′,6′-tetrahydro-2H,4′H-spiro[1-benzofuro[2,3-c]pyridine-1,3′-pyran]] | < 500 | 85 to 95 °C | –
35 | CC1CNCc2oc3cc(S(=O)(=O)c4cccc(F)c4)ccc3c21 (stereo not shown) [Example 102] | < 500 | > 300 °C | –
36 | Cc1ccc2nsnc2c1S(=O)(=O)c1ccc2c(c1)OC1CNCCC21 (stereo not shown) [Example 70] | > 1000 | 200 to 201 °C | –
37 | O=S(=O)(c1ccc2c(c1)OC1CNCCC21)c1c(Cl)cccc1Cl (stereo not shown) [Example 64] | < 500 | 222 to 223 °C | –
38 | O=S(=O)(c1ccc2c3c(oc2c1)C1(CCOC1)NCC3)c1cccc(F)c1F (single isomer, unassigned; enantiomer 1) [Example 473, 7-[(2,3-Difluorophenyl)sulfonyl]-3,4,4′,5-tetrahydro-2H-spiro[1-benzofuro[2,3-c]pyridine-1,3′-furan], enantiomer 1] | < 500 | 269 to 272 °C | –
39 | CC12CCNCC1Oc1ccc(S(=O)(=O)c3cccc(Cl)c3)cc12 (stereo not shown) [Example 103] | < 500 | 218 to 220 °C | –
